# Test results from patent US11866720B2, “Transgenic or non-transgenic plants with mutated protoporphyrinogen oxidase having increased tolerance to herbicides” (priority 2013, dated 2024).
# Several values for one entry are separate records, joined by “and”; a condition that tells them apart may be missing. Identical values can stand only once. Like-named read-outs stand apart in the source and are kept apart here.
# Tests used:
# [1] = tested on: transgenic soybean expressing mutated PPO; assay: Soybean T0 cuttings, greenhouse spray test (injury score 0-9, 1 week after treatment); format: in vivo, Glycine max; conditions: for Injury score from 0-9: soybean T0 cuttings, 1 week after treatment
# Excerpt: For testing of T0 plants, cuttings can be used. In the case of soybean plants, an optimal shoot for cutting is about 7.5 to 10 cm tall, with at least two nodes present. Each cutting is taken from the original transformant (mother plant) and dipped into rooting hormone powder (indole-3-butyric acid, IBA). The cutting is then placed in oasis wedges inside a bio-dome. Wild type cuttings are also taken simultaneously to serve as controls. The cuttings are kept in the bio-dome for 5-7 days and then transplanted to pots and then acclimated in the growth chamber for two more days. Subsequently, the cuttings are transferred to the greenhouse, acclimated for approximately 4 days, and then subjected to spray tests as indicated. Depending on the species, the plants are kept at 10-25° C. or 20-35° C. The test period extends over 3 weeks. During this time, the plants are tended and their response to the individual treatments is evaluated. Herbicide injury evaluations are taken at 2 and 3 weeks after treatment. Plant injury is rated on a scale of 0% to 100%, 0% being no injury and 100% being complete death.
# Soybean cv Jake was transformed as previously described by Siminszky et al., Phytochem Rev. 5:445-458 (2006). After regeneration, transformants were transplanted to soil in small pots, placed in growth chambers (16 hr day/8 hr night; 25° C. day/23° C. night; 65% relative humidity; 130-150 microE m-2 s-1) and subsequently tested for the presence of the T-DNA via Taqman analysis. After a few weeks, healthy, transgenic positive, single copy events were transplanted to larger pots and allowed to grow in the growth chamber. An optimal shoot for cutting was about 3-4 inches tall, with at least two nodes present. Each cutting was taken from the original transformant (mother plant) and dipped into rooting hormone powder (indole-3-butyric acid, IBA). The cutting was then placed in oasis wedges inside a bio-dome. The mother plant was taken to maturity in the greenhouse and harvested for seed. Wild type cuttings were also taken simultaneously to serve as negative controls. The cuttings were kept in the bio-dome for 5-7 days and then transplanted to 3 inch pots and then acclimated in the growth chamber for two more days. […] Herbicide injury evaluations were taken at 2, 7, 14 and 21 days after treatment. Results are shown in Tables 11a-11i, and FIGS. 5, 6, and 7.
# The following gives a definition of the injury scores measured above: […]
# [2] = tested on: transgenic soybean expressing mutated PPO; assay: Soybean segregating T1 individuals, greenhouse spray test (injury 0-9); format: in vivo, Glycine max; conditions: benzoxazin 100 g ai/ha, 1 week after treatment
# [3] = tested on: transgenic soybean expressing mutated PPO; format: in vivo, Glycine max; conditions: T1 soybean, field; for injury (1-5 point scale): benzoxazin (BAS 850H) 100 g ai/ha, 3 days after treatment; for injury (1-5 point scale): key: 1: no obvious damage (no phytotoxicity); 2: minor amount of leaf damage, plant will survive; 3: moderate amount of leaf damage, plant will survive; 4: severe amount of leaf damage, plant will survive; 5: no surviving plants - all plants dead/dying
# [4] = tested on: transgenic Arabidopsis thaliana plants expressing wildtype or mutated PPO; assay: Germination / growth inhibition assay of transgenic Arabidopsis T2 seeds in 48-well plates; conditions: growth inhibition seven to ten days after seeding
# [5] = SDS-10648 AmtuPPX2L R128A_F420I
smiles,measurement,setting,value
C#CCN1C(=O)C(F)(F)Oc2cc(F)c(-n3c(=O)n(C)c(=S)n(C)c3=O)cc21,injury score 1 WAT,"[1]; Soy T0 AmtuPPX2L_R128L_F420V event 1, greenhouse, 25 g ai/ha",3
same,injury score 1 WAT,"[1]; Soy T0 AmtuPPX2L_R128L_F420V event 1, greenhouse, 50 g ai/ha",4
same,injury score 1 WAT,"[1]; Soy T0 AmtuPPX2L_R128L_F420V event 1, greenhouse, 75 g ai/ha",5
same,injury score 1 WAT,"[1]; Soy T0 AmtuPPX2L_R128L_F420V event 2, greenhouse, 25 g ai/ha",0
same,injury score 1 WAT,"[1]; Soy T0 AmtuPPX2L_R128L_F420V event 2, greenhouse, 50 g ai/ha",1
same,injury score 1 WAT,"[1]; Soy T0 AmtuPPX2L_R128L_F420V event 2, greenhouse, 75 g ai/ha",3
same,Injury score from 0-9,"[1]; AmtuPPX2L (10 events), benzoxazin 12.5 + 1% MSO",3
same,Injury score from 0-9,"[1]; AmtuPPX2L (10 events), benzoxazin 25 + 1% MSO",5
same,Injury score from 0-9,"[1]; AmtuPPX2L_F420L (7 events), benzoxazin 12.5 + 1% MSO",2
same,Injury score from 0-9,"[1]; AmtuPPX2L_F420L (7 events), benzoxazin 25 + 1% MSO",1
same,Injury score from 0-9,"[1]; AmtuPPX2L_F420M (8 events), benzoxazin 25 + 1% MSO",1
same,Injury score from 0-9,"[1]; AmtuPPX2L_F420M (8 events), benzoxazin 50 + 1% MSO",2
same,Injury score from 0-9,"[1]; AmtuPPX2L_R128A_F420I (9 events), benzoxazin 25 + 1% MSO",2
same,Injury score from 0-9,"[1]; AmtuPPX2L_R128A_F420I (9 events), benzoxazin 50 + 1% MSO",2
same,Injury score from 0-9,"[1]; AmtuPPX2L_R128A_F420I (9 events), benzoxazin 75 + 1% MSO",3
same,Injury score from 0-9,"[1]; AmtuPPX2L_R128A_F420L (6 events), benzoxazin 25 + 1% MSO",0
same,Injury score from 0-9,"[1]; AmtuPPX2L_R128A_F420M (7 events), benzoxazin 25 + 1% MSO",3
same,Injury score from 0-9,"[1]; AmtuPPX2L_R128A_F420M (7 events), benzoxazin 50 + 1% MSO",3
same,Injury score from 0-9,"[1]; AmtuPPX2L_R128A_F420M (7 events), benzoxazin 75 + 1% MSO",4
same,Injury score from 0-9,"[1]; AmtuPPX2L_R128A_F420V (14 events), benzoxazin 25 + 1% MSO",2
same,Injury score from 0-9,"[1]; AmtuPPX2L_R128A_F420V (14 events), benzoxazin 50 + 1% MSO",2
same,Injury score from 0-9,"[1]; AmtuPPX2L_R128A_F420V (14 events), benzoxazin 75 + 1% MSO",3
same,Injury score from 0-9,"[1]; AmtuPPX2L_dG210 (13 events), benzoxazin 25 + 1% MSO",1
same,Injury score from 0-9,"[1]; AmtuPPX2L_dG210 (13 events), benzoxazin 50 + 1% MSO",3
same,Injury score from 0-9,"[1]; AmtuPPX2L_dG210_R128L (12 events), benzoxazin 25 + 1% MSO",2
same,Injury score from 0-9,"[1]; AmtuPPX2L_dG210_R128L (12 events), benzoxazin 50 + 1% MSO",3
same,Injury score from 0-9,"[1]; NitabPPX2 (13 events), benzoxazin 12.5 + 1% MSO",6
same,Injury score from 0-9,"[1]; NitabPPX2 (13 events), benzoxazin 25 + 1% MSO",6
same,Injury score from 0-9,"[1]; NitabPPX2_R98A_F392V (9 events), benzoxazin 25 + 1% MSO",0
same,Injury score from 0-9,"[1]; NitabPPX2_R98A_F392V (9 events), benzoxazin 50 + 1% MSO",0
same,Injury score from 0-9,"[1]; wild type Jake variety, benzoxazin 12.5 + 1% MSO",7
same,Injury score from 0-9,"[1]; wild type Jake variety, benzoxazin 25 + 1% MSO",8
same,Injury score from 0-9,"[1]; wild type Jake variety, benzoxazin 50 + 1% MSO",9
same,Injury score from 0-9,"[1]; wild type Jake variety, benzoxazin 75 + 1% MSO",9
same,injury (0-9 point scale),[2]; SDS10791 AmtuPPX2L R128A_F420I,3 (2×) and 2 and 4 (3×) and 9 and 5
same,injury (0-9 point scale),[2]; SDS-10642 AmtuPPX2L R128A_F420L,6 and 5 (5×) and 9 and 4
same,injury (0-9 point scale),[2]; [5],4 (3×) and 9 and 5 (4×)
same,injury (0-9 point scale),[2]; SDS-10652 AmtuPPX2L L397D_F420V,9 (2×) and 4 (6×)
same,injury (0-9 point scale),[2]; SDS-10787 AmtuPPX2L R128A_F420L,4 and 5 (3×) and 9 (2×) and 6 (2×)
same,injury (0-9 point scale),[2]; SDS-10985 AmtuPPX2L R128A_F420M,9 (5×) and 6 (3×)
same,injury (0-9 point scale),[2]; SDS-10990 AmtuPPX2L R128A_F420M,9 (3×) and 7 (2×) and 6 (3×)
same,injury (0-9 point scale),[2]; SDS-11034 AmtuPPX2L R128A_F420V,4 (3×) and 3 (3×) and 2 (2×)
same,injury (0-9 point scale),[2]; wild type,9 (7×) and 8
same,Injury rating (1-5 point scale),"[3]; AmtuPPX2L_R128A_F420V (event 10), BAS 850H: treatment 1 100 g ai/ha, treatment 2 0, 7DAT",3.5
same,Injury rating (1-5 point scale),"[3]; AmtuPPX2L_R128A_F420V (event 10), BAS 850H: treatment 1 300 g ai/ha, treatment 2 300 g ai/ha, 14 DAT",3
same,injury (1-5 point scale),[3]; [5],3
same,injury (1-5 point scale),[3]; SDS-10791 AmtuPPX2L R128A_F420I,2
same,injury (1-5 point scale),[3]; SDS-11014 AmtuPPX2L R128A_F420I,2
same,injury (1-5 point scale),[3]; SDS-11034 AmtuPPX2L L397D_F420V,3
same,injury (1-5 point scale),[3]; SDS-11035 AmtuPPX2L R128A_F420V,2
same,injury (1-5 point scale),[3]; SDS-11052 AmtuPPX2L R128A_F420M,3
same,Injury rating (1-5 point scale),"[3]; wild type, BAS 850H: treatment 1 100 g ai/ha, treatment 2 0, 7DAT",5
same,Injury rating (1-5 point scale),"[3]; wild type, BAS 850H: treatment 1 300 g ai/ha, treatment 2 300 g ai/ha, 14 DAT",5
same,injury (1-5 point scale),[3]; wild type,5
same,Relative tolerance rate as compared to a non-transgenic Arabidopsis plant (non-transgenic = 1.0),[4]; transgenic Arabidopsis AMATU_PPO2_F420I,367
same,Relative tolerance rate as compared to a non-transgenic Arabidopsis plant (non-transgenic = 1.0),[4]; transgenic Arabidopsis AMATU_PPO2_F420L,253
same,Relative tolerance rate as compared to a non-transgenic Arabidopsis plant (non-transgenic = 1.0),[4]; transgenic Arabidopsis AMATU_PPO2_F420M,102
same,Relative tolerance rate as compared to a non-transgenic Arabidopsis plant (non-transgenic = 1.0),[4]; transgenic Arabidopsis AMATU_PPO2_R128A_F420I,333
same,Relative tolerance rate as compared to a non-transgenic Arabidopsis plant (non-transgenic = 1.0),[4]; transgenic Arabidopsis AMATU_PPO2_R128A_F420L,333
same,Relative tolerance rate as compared to a non-transgenic Arabidopsis plant (non-transgenic = 1.0),[4]; transgenic Arabidopsis AMATU_PPO2_R128A_F420M,204
same,Relative tolerance rate as compared to a non-transgenic Arabidopsis plant (non-transgenic = 1.0),[4]; transgenic Arabidopsis AMATU_PPO2_R128L,23
same,Relative tolerance rate as compared to a non-transgenic Arabidopsis plant (non-transgenic = 1.0),[4]; transgenic Arabidopsis AMATU_PPO2_dG210,33
same,Relative tolerance rate as compared to a non-transgenic Arabidopsis plant (non-transgenic = 1.0),[4]; transgenic Arabidopsis AMATU_PPO2_dG210_R128L,153
same,Relative tolerance rate as compared to a non-transgenic Arabidopsis plant (non-transgenic = 1.0),[4]; transgenic Arabidopsis AMATU_PPO2_wt,13
